Patent US11040981B2, “Pyrrolotriazine compounds and methods of inhibiting TAM kinases” (Syros Pharmaceuticals, Inc., priority 2017, dated 2021)

How the values were obtained:
AXL = target: T1, AXL (Homo sapiens, UniProt P30530); test: TR-FRET kinase activity assay, AXL; assay type: biochemical; conditions: ATP at Km, 60 minutes
T1 sequence (P30530 26-894): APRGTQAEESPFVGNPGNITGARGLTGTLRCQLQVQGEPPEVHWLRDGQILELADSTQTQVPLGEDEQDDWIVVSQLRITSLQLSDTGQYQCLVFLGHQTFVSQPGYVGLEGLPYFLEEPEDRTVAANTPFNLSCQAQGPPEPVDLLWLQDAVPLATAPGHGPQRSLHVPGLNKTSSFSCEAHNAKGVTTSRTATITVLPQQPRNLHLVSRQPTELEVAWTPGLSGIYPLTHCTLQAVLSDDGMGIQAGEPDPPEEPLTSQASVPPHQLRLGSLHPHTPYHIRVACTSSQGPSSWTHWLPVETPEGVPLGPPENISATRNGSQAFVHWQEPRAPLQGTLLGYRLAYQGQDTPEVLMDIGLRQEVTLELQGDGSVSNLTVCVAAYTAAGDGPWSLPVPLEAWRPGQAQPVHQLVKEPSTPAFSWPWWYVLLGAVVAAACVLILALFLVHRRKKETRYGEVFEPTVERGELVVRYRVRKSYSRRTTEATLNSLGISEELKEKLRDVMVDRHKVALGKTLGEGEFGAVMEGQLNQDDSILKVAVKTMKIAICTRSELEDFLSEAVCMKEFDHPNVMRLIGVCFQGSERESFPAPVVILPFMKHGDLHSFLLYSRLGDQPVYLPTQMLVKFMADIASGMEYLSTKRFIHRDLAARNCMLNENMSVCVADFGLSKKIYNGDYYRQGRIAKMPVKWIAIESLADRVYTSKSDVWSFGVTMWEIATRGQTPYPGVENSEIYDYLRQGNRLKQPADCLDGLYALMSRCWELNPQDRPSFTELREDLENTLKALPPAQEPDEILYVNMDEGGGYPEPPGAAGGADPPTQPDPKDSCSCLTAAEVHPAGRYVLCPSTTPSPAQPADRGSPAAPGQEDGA
Procedure, shortened: (§1)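 Inhibition is measured as loss of phospho-peptide formation: kinase, fluorescent tyrosine peptide and compound are combined, ATP is added at Km, and the reaction proceeds 60 min at RT in pH 7.5 HEPES buffer. An EDTA stop and Eu-labelled phospho-specific antibody allow TR-FRET detection for IC50 fitting.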

MERTK = target: T2, MERTK (Homo sapiens, UniProt Q12866); test: TR-FRET kinase activity assay, MERTK; assay type: biochemical; conditions: for IC50: TR-FRET activity assay, ATP at Km, 60 minutes, read-out: Mer IC50; for FLT3/Mer ratio (FLT3 IC50/Mer IC50): ratio of Mer to FLT3: FLT3 IC50/Mer IC50
T2 sequence (Q12866 21-999): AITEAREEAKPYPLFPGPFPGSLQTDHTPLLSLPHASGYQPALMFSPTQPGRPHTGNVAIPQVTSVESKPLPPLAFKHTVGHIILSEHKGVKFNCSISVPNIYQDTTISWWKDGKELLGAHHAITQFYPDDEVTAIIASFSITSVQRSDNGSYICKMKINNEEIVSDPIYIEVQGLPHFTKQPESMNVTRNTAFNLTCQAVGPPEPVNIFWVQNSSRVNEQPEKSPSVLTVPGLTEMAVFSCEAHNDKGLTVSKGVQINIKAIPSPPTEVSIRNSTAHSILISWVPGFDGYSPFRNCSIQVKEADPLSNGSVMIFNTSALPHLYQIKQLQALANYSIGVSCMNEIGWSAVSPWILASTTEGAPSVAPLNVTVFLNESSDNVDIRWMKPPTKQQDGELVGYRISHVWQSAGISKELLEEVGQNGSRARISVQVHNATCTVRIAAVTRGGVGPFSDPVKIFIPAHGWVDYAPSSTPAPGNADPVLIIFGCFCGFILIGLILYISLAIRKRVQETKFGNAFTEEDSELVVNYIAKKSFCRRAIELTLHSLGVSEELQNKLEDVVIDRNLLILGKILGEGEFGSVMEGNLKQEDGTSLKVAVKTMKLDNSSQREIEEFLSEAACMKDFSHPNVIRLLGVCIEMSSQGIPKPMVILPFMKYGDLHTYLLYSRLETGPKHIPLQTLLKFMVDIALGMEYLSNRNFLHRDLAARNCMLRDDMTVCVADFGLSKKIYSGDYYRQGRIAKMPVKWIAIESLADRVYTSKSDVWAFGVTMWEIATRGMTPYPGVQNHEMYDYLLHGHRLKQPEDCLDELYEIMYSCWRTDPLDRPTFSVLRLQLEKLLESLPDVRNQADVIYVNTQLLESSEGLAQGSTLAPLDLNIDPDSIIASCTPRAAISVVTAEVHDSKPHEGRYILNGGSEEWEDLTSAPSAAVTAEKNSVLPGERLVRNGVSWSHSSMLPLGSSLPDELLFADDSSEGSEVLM
Procedure, shortened: as §1

Structure (SMILES) | IC50 (AXL) [nM] | IC50 (MERTK) [nM] | FLT3/Mer ratio (FLT3 IC50/Mer IC50) (MERTK)
CCCCC[C@H](C)Nc1ncc2c(-c3ccc(S(=O)(=O)N4CCOCC4)cc3)cc([C@H]3CC[C@@H](O)CC3)n2n1 [Compound 103, (1R,4s)-4-(2-((S)-heptan-2-ylamino)-5-(4-(morpholinosulfonyl)phenyl)pyrrolo[2,1-f][1,2,4]triazin-7-yl)cyclohexanol] | 100 to 1000 | ≤ 100 | ++ (“++” represents a ratio of between 10 and 100)
COCC(C)Nc1ncc2c(C3CC4CCC(C3)N4C)cc(C3CCC(O)CC3)n2n1 (stereo not drawn) [Compound 191] | 100 to 1000 | ≤ 100 | +++ (“+++” represents a ratio of >100)
COC[C@H](C)Nc1ncc2c(-c3cn(C)cn3)cc([C@H]3CC[C@H](O)CC3)n2n1 [Compound 186] | 100 to 1000 | ≤ 100 | ++ (“++” represents a ratio of between 10 and 100)
COCC(C)Nc1ncc2c(-c3ccc(C4(N5CCN(C)CC5)CC4)cc3)cc(C3CCC(O)CC3)n2n1 (stereo not drawn) [Compound 185] | ≤ 100 | ≤ 100 | ++ (“++” represents a ratio of between 10 and 100)

Further lines, with some results ahead:

IC50 (AXL) [nM] | IC50 (MERTK) [nM] | Structure (SMILES) | FLT3/Mer ratio (FLT3 IC50/Mer IC50) (MERTK)
≤ 100 | ≤ 100 | Cc1cc(-c2cc(C3CCC(O)CC3)n3nc(NC(C)CC4CC4)ncc23)ccn1 (stereo not drawn) [Compound 190] | +++ (“+++” represents a ratio of >100)
1000 to 10000 | 100 to 1000 | COCC(C)Nc1ncc2c(N3CCOCC3=O)cc(C3CCC(O)CC3)n2n1 (stereo not drawn) [Compound 192] | ++ (“++” represents a ratio of between 10 and 100)
≤ 100 | ≤ 100 | CC(CC1CC1)Nc1ncc2c(-c3ccc(CN4CCOCC4)cc3)cc(C3CCC(O)CC3)n2n1 (stereo not drawn) [Compound 189] | ++ (“++” represents a ratio of between 10 and 100)
≤ 100 | ≤ 100 | C[C@@H](COC(F)F)Nc1ncc2c(-c3ccc(CN4CCOCC4)cc3)cc([C@H]3CC[C@H](O)CC3)n2n1 [Compound 188] | +++ (“+++” represents a ratio of >100)
≤ 100 | ≤ 100 | COC[C@H](C)Nc1ncc2c(-c3ccc(C(=O)N4CCOCC4)cc3)cc([C@H]3CC[C@H](O)CC3)n2n1 [Compound 187, (4-(7-((trans)-4-hydroxycyclohexyl)-2-(((S)-1-methoxypropan-2-yl)amino)pyrrolo[2,1-f][1,2,4]triazin-5-yl)phenyl)(morpholino)methanone] | +++ (“+++” represents a ratio of >100)
